Measurements as given in ChEMBL document CHEMBL5678816, “A Next-Generation TRK Kinase Inhibitor Overcomes Acquired Resistance to Prior TRK Kinase Inhibition in Patients with TRK Fusion-Positive Solid Tumors” (Cancer Discov, 2017).
The source made the active and inactive calls. The rule behind the calls is not given here.

Tests used:
[1] = molecular target: Serine/threonine-protein kinase Nek2 (Homo sapiens) (UniProt P51955); experiment: Inhibition of NEK2 (unknown origin) at 1 uM in presence of ATP relative to control; values are per cent of control
Chain of Serine/threonine-protein kinase Nek2 (Homo sapiens) (P51955 whole entry): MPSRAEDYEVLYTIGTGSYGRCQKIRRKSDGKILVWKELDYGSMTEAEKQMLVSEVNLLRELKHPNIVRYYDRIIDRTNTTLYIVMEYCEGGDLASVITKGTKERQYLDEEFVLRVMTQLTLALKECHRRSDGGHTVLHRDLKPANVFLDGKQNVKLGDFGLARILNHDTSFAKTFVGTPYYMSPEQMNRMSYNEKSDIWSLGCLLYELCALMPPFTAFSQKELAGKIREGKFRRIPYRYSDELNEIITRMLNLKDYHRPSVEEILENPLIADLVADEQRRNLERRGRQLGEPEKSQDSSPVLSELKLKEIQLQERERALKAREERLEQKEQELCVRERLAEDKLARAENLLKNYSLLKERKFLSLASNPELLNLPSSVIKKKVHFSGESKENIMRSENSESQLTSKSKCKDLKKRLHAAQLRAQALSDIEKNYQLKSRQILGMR

[2] = molecular target: Ephrin type-A receptor 5 (Homo sapiens) (UniProt P54756); experiment: Inhibition of EphA5 (unknown origin) at 1 uM in presence of ATP relative to control; values are per cent of control
Chain of Ephrin type-A receptor 5 (Homo sapiens) (P54756 whole entry): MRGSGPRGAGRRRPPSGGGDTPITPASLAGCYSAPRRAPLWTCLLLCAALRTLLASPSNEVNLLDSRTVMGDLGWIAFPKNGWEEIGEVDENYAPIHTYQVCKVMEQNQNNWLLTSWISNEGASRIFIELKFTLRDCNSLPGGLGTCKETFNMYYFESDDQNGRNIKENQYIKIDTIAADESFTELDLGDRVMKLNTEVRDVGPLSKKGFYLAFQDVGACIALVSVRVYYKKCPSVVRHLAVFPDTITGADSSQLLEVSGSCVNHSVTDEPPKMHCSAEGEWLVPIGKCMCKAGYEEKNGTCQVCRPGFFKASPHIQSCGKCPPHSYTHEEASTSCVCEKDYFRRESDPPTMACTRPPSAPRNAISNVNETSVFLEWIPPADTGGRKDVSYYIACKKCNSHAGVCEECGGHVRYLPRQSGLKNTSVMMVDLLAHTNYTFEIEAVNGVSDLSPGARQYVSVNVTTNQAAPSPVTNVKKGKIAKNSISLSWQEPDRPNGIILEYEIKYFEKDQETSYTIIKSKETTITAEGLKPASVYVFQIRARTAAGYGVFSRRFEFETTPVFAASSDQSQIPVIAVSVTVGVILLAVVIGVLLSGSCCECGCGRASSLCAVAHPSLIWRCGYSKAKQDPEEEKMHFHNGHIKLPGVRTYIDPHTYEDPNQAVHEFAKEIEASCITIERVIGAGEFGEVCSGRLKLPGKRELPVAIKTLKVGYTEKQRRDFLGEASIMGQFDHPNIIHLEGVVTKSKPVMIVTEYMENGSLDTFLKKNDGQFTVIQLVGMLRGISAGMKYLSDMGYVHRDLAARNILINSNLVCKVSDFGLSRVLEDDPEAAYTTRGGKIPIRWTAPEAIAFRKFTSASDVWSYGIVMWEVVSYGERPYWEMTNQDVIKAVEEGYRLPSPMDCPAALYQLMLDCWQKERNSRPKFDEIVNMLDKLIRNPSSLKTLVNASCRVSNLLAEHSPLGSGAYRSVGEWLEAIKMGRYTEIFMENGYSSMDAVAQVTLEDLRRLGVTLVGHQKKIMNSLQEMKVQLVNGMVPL

[3] = molecular target: G protein-coupled receptor kinase 5 (Homo sapiens) (UniProt P34947); experiment: Inhibition of GRK5 (unknown origin) at 1 uM in presence of ATP relative to control; values are per cent of control
[4] = molecular target: Casein kinase II subunit alpha' (Homo sapiens) (UniProt P19784); experiment: Inhibition of CK2alpha2 (unknown origin) at 1 uM in presence of ATP relative to control; values are per cent of control
[5] = molecular target: Serine/threonine-protein kinase PAK 6 (Homo sapiens) (UniProt Q9NQU5); experiment: Inhibition of PAK6 (unknown origin) at 1 uM in presence of ATP relative to control; values are per cent of control
SW579 = experiment: Inhibition of cell proliferation in human SW579 cells upto 10 umol/L incubated for 72 hrs by DAPI staining based analysis; assay type: functional; details: dose <= 10.0 µmol/L
[6] = molecular target: MAP kinase-activated protein kinase 5 (Homo sapiens) (UniProt Q8IW41); experiment: Inhibition of MAPKAP-K5 (unknown origin) at 1 uM in presence of ATP relative to control; values are per cent of control
[7] = molecular target: Mitogen-activated protein kinase 11 (Homo sapiens) (UniProt Q15759); experiment: Inhibition of p38beta (unknown origin) at 1 uM in presence of ATP relative to control; values are per cent of control
Chain of Mitogen-activated protein kinase 11 (Homo sapiens) (Q15759 whole entry): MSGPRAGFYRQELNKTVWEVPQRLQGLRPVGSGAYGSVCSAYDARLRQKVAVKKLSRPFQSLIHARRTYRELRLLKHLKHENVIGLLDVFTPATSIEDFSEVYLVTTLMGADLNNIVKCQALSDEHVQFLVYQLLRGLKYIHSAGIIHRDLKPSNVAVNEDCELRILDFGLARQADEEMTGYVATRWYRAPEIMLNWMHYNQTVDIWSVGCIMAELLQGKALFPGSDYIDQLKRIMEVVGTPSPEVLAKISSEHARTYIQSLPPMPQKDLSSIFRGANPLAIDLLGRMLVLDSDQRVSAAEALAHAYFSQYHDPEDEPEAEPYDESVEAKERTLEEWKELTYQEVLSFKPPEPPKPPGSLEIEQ

[8] = molecular target: Cyclin-dependent kinase 5/CDK5 activator 1 (Homo sapiens) (UniProt Q00535+Q15078); experiment: Inhibition of CDK5/p25 (unknown origin) at 1 uM in presence of ATP relative to control; values are per cent of control
Chain of Cyclin-dependent kinase 5/CDK5 activator 1 (Homo sapiens) (Q00535 whole entry): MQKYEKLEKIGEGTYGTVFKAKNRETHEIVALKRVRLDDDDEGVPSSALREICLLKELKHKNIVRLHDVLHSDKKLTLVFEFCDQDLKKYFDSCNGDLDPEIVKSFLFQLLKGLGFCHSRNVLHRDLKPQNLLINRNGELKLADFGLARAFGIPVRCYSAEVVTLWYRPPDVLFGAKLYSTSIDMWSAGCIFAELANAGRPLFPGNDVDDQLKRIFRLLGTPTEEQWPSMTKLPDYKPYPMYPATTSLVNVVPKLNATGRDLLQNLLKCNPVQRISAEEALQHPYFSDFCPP
Chain of Cyclin-dependent kinase 5/CDK5 activator 1 (Homo sapiens) (Q15078 99-307 partner limits assumed): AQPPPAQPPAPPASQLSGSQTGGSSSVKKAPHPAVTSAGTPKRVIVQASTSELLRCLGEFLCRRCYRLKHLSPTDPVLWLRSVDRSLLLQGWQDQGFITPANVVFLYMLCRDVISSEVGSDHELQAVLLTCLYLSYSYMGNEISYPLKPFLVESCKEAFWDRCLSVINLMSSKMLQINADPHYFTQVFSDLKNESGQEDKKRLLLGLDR

BHT-101 = experiment: Inhibition of cell proliferation in human BHT-101 cells upto 10 umol/L incubated for 72 hrs by DAPI staining based analysis; assay type: functional; details: dose <= 10.0 µmol/L
[9] = molecular target: Receptor-type tyrosine-protein kinase FLT3 (Homo sapiens) (UniProt P36888); experiment: Inhibition of FLt3 (unknown origin) at 1 uM in presence of ATP relative to control; values are per cent of control
[10] = Inhibition of human extracellular domain deleted TRKA G667S mutant expressed in mouse NIH3T3 cells assessed as reduction in TRKA phosphorylation incubated for 1 hrs by ELISA; assay type: cell-based; details: NIH3T3, 1 h
[11] = molecular target: Mitogen-activated protein kinase 9 (Homo sapiens) (UniProt P45984); experiment: Inhibition of JNK2alpha2 (unknown origin) at 1 uM in presence of ATP relative to control; values are per cent of control
[12] = molecular target: Homeodomain-interacting protein kinase 3 (Homo sapiens) (UniProt Q9H422); experiment: Inhibition of HIPK3 (unknown origin) at 1 uM in presence of ATP relative to control; values are per cent of control
[13] = molecular target: Casein kinase I isoform gamma-1 (Homo sapiens) (UniProt Q9HCP0); experiment: Inhibition of CK1gamma1 (unknown origin) at 1 uM in presence of ATP relative to control; values are per cent of control
Chain of Casein kinase I isoform gamma-1 (Homo sapiens) (Q9HCP0 whole entry, looked up, canonical isoform): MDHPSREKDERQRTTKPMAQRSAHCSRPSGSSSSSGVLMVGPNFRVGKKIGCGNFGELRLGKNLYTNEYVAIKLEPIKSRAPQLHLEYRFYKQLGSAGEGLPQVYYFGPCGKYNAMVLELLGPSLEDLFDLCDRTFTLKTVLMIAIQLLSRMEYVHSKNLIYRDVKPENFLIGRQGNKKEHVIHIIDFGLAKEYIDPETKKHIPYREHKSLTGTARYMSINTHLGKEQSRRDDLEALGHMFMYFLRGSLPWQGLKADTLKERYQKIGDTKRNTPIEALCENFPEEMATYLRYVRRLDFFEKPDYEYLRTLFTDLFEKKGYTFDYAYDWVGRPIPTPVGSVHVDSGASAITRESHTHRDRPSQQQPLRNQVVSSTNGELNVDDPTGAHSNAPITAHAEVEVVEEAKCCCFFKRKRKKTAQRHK

A101D = experiment: Inhibition of cell proliferation in human A101D cells upto 10 umol/L incubated for 72 hrs by DAPI staining based analysis; assay type: functional; details: dose <= 10.0 µmol/L
TCC-SUP = experiment: Inhibition of cell proliferation in human TCC-SUP cells upto 10 umol/L incubated for 72 hrs by DAPI staining based analysis; assay type: functional; details: dose <= 10.0 µmol/L
[14] = molecular target: Vascular endothelial growth factor receptor 3 (Homo sapiens) (UniProt P35916); experiment: Inhibition of FLt4 (unknown origin) at 1 uM in presence of ATP relative to control; values are per cent of control
[15] = molecular target: Protein kinase C zeta type (Homo sapiens) (UniProt Q05513); experiment: Inhibition of PKCzeta (unknown origin) at 1 uM in presence of ATP relative to control; values are per cent of control
[16] = molecular target: CDK9/cyclin T1 (Homo sapiens) (UniProt O60563+P50750); experiment: Inhibition of CDK9/cyclinT1 (unknown origin) at 1 uM in presence of ATP relative to control; values are per cent of control
[17] = molecular target: Insulin-like growth factor 1 receptor (Homo sapiens) (UniProt P08069); experiment: Inhibition of IGF-1R (unknown origin) at 1 uM in presence of ATP relative to control; values are per cent of control
[18] = molecular target: Phosphorylase b kinase gamma catalytic chain, liver/testis isoform (Homo sapiens) (UniProt P15735); experiment: Inhibition of PhKgamma2 (unknown origin) at 1 uM in presence of ATP relative to control; values are per cent of control
Chain of Phosphorylase b kinase gamma catalytic chain, liver/testis isoform (Homo sapiens) (P15735 whole entry, canonical isoform): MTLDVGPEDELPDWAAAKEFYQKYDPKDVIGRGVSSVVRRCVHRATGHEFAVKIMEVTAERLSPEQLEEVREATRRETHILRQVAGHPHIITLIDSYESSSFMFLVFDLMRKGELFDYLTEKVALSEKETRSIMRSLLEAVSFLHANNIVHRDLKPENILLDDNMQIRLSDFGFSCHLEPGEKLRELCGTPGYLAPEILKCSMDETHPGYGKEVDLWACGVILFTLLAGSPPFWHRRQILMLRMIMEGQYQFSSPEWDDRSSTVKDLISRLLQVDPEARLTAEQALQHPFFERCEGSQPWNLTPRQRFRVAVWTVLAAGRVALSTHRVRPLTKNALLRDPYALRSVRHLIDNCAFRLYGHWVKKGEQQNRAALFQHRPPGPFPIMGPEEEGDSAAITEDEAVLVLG

[19] = molecular target: Serine/threonine-protein kinase TAO2 (Homo sapiens) (UniProt Q9UL54); experiment: Inhibition of TAO2 (unknown origin) at 1 uM in presence of ATP relative to control; values are per cent of control
Chain of Serine/threonine-protein kinase TAO2 (Homo sapiens) (Q9UL54 whole entry): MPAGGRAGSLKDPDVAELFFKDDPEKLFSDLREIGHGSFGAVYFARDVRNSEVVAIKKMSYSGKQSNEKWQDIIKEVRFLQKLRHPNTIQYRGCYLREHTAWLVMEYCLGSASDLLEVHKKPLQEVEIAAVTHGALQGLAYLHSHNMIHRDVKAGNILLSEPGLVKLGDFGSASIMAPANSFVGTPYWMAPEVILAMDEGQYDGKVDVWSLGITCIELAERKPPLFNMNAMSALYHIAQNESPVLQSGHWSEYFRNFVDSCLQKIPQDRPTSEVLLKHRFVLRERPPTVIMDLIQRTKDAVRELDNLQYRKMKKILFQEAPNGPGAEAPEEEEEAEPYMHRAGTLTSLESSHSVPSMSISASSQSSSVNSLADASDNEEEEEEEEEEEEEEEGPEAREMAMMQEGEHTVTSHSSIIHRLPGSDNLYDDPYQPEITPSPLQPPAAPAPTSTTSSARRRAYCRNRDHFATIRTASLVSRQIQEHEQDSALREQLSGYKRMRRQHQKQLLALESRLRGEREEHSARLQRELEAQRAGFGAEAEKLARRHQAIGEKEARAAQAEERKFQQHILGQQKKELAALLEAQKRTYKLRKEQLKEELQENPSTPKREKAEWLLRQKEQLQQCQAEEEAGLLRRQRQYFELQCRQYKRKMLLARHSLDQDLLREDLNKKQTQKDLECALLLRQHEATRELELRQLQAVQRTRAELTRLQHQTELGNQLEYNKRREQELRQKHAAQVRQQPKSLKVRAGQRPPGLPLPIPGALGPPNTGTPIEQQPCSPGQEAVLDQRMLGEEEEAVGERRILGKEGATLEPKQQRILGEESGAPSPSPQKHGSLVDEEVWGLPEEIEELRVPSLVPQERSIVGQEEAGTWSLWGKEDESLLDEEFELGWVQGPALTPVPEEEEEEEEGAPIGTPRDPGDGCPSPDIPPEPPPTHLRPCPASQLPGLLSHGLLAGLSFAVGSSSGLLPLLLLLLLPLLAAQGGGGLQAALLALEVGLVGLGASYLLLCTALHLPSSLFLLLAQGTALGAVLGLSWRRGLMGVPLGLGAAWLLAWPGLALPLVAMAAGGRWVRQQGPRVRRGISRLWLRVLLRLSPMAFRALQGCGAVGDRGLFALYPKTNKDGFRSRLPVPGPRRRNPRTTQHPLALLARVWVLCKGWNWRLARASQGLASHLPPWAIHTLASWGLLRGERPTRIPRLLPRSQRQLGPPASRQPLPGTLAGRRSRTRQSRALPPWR

[20] = molecular target: Insulin receptor-related protein (Homo sapiens) (UniProt P14616); experiment: Inhibition of IRR (unknown origin) at 1 uM in presence of ATP relative to control; values are per cent of control
[21] = Cmax in pediatric patient with recurrent ETV6-NTRK3-rearranged infantile fibrosarcoma at 100 mg administered twice a day as liquid formulation for 29 day by LC-MS/MS analysis; assay type: ADME; details: human, in vivo
MV4-11 = experiment: Inhibition of cell proliferation in human MV4-11 cells upto 10 umol/L incubated for 72 hrs by DAPI staining based analysis; assay type: functional; details: dose <= 10.0 µmol/L
[22] = molecular target: Tyrosine-protein kinase SYK (Homo sapiens) (UniProt P43405); experiment: Inhibition of Syk (unknown origin) at 1 uM in presence of ATP relative to control; values are per cent of control
[23] = molecular target: Tyrosine-protein kinase Lck (Homo sapiens) (UniProt P06239); experiment: Inhibition of Lck (unknown origin) at 1 uM in presence of ATP relative to control; values are per cent of control
Chain of Tyrosine-protein kinase Lck (Homo sapiens) (P06239 2-509 limits assumed): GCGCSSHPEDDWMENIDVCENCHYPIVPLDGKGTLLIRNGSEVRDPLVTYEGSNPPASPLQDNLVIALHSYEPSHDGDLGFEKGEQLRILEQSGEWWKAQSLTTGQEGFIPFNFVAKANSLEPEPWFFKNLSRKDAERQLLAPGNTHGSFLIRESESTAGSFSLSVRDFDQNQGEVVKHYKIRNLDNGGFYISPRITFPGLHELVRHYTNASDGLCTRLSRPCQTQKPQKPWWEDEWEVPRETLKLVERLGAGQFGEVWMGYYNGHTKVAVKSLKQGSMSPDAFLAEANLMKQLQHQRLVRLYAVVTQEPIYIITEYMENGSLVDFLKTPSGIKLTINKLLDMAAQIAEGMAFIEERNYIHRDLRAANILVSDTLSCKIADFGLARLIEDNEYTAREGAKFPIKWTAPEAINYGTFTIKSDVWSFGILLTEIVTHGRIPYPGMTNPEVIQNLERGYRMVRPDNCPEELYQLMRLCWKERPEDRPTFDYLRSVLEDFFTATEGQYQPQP

C[C@@H]1CCc2ncc(F)cc2[C@H]2CCCN2c2ccn3ncc(c3n2)C(=O)N1 [SELITRECTINIB]
residual activity [1]: 117% | residual activity [2]: 90% | residual activity [3]: 110% | residual activity [4]: 99% | residual activity [5]: 99% | inhibition (SW579): inactive | residual activity [6]: 97% | residual activity [7]: 123% | residual activity [8]: 98.5% | inhibition (BHT-101): inactive | residual activity [9]: 85.5% | IC50 [10]: 25 nM | residual activity [11]: 100% | residual activity [12]: 105% | residual activity [13]: 112% | inhibition (A101D): inactive | inhibition (TCC-SUP): inactive | residual activity [14]: 90% | residual activity [15]: 106% | residual activity [16]: 110% | residual activity [17]: 96% | residual activity [18]: 104% | residual activity [19]: 104% | residual activity [20]: 111% | Cmax [21]: 776 ng/mL | inhibition (MV4-11): inactive | residual activity [22]: 114% | residual activity [23]: 92.5%
